From patent publication US20030138433A1, “Autologous adoptive immunotherapy with antigen-specific primed T cells or B cells to promote antigen-specific immune responses with an appropriate cytokine bias” (priority 1999, published 2003)

How the values were obtained:
[1] = system: Splenic B cells from AKR mice (resting, in vitro primed, in vivo activated); assay: Apoptotic death of splenic B cells scored by nucleosome-sized DNA fragments (densitometry); format: cell-based; conditions: 10 μM, primed and activated B cells
Protocol: Splenic B cells from AKR mice were separated on a Percoll density gradient and two fractions were collected: small, high-density, resting B cells were obtained from the 1.079<ρ<1.085 g/ml interface and large in vivo activated B cells were collected at the BSS<ρ<1.066 g/ml interface. In vitro primed B cells were obtained by treating resting B cells with 16U recombinant IL-4 and by incubating them overnight on anti-Ig-coated plates. […] Apoptotic death was scored by quantitating the formation of nucleosome-sized DNA fragments by densitometry.

[2] = system: transgenic mice expressing a hen egg lysozyme (HEL)-specific T cell receptor (3A9) crossed with MHC class II transgenic mice; assay: In vivo antigen pulse of 3A9 x MHC class II transgenic crosses, spleen cell analysis; conditions: 100 μg, six days after injection
Protocol: Mouse spleens were removed after sacrifice and placed into 4 ml PBS, 0.1% BSA in a petri dish. A single cell suspension was prepared using the frosted ends of two microscope slides. Cells were then transferred into a 15 ml tube. The cell suspension was underlayed with 2 ml Ficoll-paque and then centrifuged for 15 min. at 1,000×g. Lymphocytes at the interface were collected and washed 3× with ice-cold 15 ml PBS, 0.1% BSA. Cells were counted and resuspended to 1.6×10^7 viable cells per ml concentration, in RPMI 1640 25 mM HEPES, 50 μM 2-ME, 10% FBS, 1× L-glutamine, 1× sodium pyruvate, 1× nonessential amino acids.
The FACScalibur, flow cytometer was calibrated using Becton-Dickinson calibration beads prior to each four color analysis run. Cells also were analyzed on a FACScan™ with CellQuest software (Becton Dickinson, San Jose, Calif.).
Two different crosses between the mice carrying the different transgenes were generated. Transgenic mice expressing a hen egg lysozyme (HEL)-specific T cell receptor (3A9) were crossed with: (i) the transgenic mice expressing wild type MIIC class II on a null MHC class II background, and (ii) the transgenic mice expressing hybrid MHC class II-MCH class I molecules on a null MHC class II background.
Mice, 4-8 weeks old, generated from the above-identified crosses were pulsed in vivo with an injection of 100 μg total of antigen (HEL). Six days after injenction, the cells from splenes were harvested, as described above, and analyzed. […] Additionally, the “tail” of MHC class II is not necessary for the proper loading and presentation of antigen.

[3] = system: Total splenic B cells from C3H, AKR, C3H.lpr and MRL.gld mice; assay: DNA content of total splenic B cells (saponin/propidium iodide flow cytometry); format: cell-based; conditions: B cells from lpr animals compared with normal animals
Protocol: Total splenic B cells were isolated from C3H, AKR, C3H.lpr, and MRL.gld mice. The cells were cultured overnight, harvested, permeabilized in saponin, stained with propidium iodide (PI) which intercalates into DNA, and analyzed by flow cytometry. Because the majority of cells in these preparations are either resting or “growth arrested,” the predominant peak in the untreated samples is the G0/G1 peak (2N DNA).

L1210/DDP cells = assay: Methotrexate-induced cell death (flow cytometry, ethidium bromide, DNA fragments); format: cell-based, mouse (BALB/c-derived)
Protocol: (§1) L1210 and L1210/DDP cells were treated overnight with 5×10^−7 M methotrexate. […] The forward scatter low populations took up ethidium bromide differentially. The L1210 cells took up a moderate amount of ethidium bromide whereas the L1210/DDP cells took up large amounts. […] This latter phenotype—loss in forward scatter and membrane permeability with no “DNA laddering”—is the hall mark of oncosis.
(§2) L1210 and L1210/DDP cells were treated with a dose of methotrexate that produced moderate amounts of cell death. (Even though L1210/DDP is “methotrexate resistant”, the drug does induce cell death in the cultures; the surviving cells which grow out of the culture are responsible for the lines “drug resistant” appellation).

L1210 cells = assay: as above; format: cell-based, mouse (BALB/c-derived)
Protocol: as §1, §2

[4] = 3A9×wild type MHC class II on null background

CC(C)NCC(O)c1ccc(O)c(O)c1 (stereo not drawn) [isoproterenol]
induction of apoptosis [1]: induces apoptosis in all three populations

hen egg lysozyme [HEL]
T cells in spleen ([2]; 3A9×hybrid MHC class II-MHC class I on null background): a CD4^+ T cell subset missing
MHC class II bearing B cells in spleen [2, 4]: no MHC class II bearing B cells
T cells in spleen [2, 4]: normal T cell numbers

CC[C@H]1CN2CCc3cc(OC)c(OC)cc3[C@@H]2C[C@@H]1C[C@H]1NCCc2cc(OC)c(OC)cc21 [emetine]
DNA fragmentation, lpr vs normal B cells [3]: equally capable of fragmenting DNA

CN(Cc1cnc2nc(N)nc(N)c2n1)c1ccc(C(=O)N[C@@H](CCC(=O)O)C(=O)O)cc1 [methotrexate]
mode of cell death (L1210/DDP cells): die by oncosis
DNA fragments (L1210/DDP cells; 5×10^−7 M overnight): did not
mode of cell death (L1210 cells; L1210): die by apoptosis
DNA fragments (L1210 cells; L1210, 5×10^−7 M overnight): produced a ladder of nucleosome sized fragments indicative of apoptosis
